In a melting point compilation (Tetko et al.; mined from patent text by program, amines drawn as free bases though some values may be those of a salt):

SMILES | melting point [°C]
CCCc1nn(C)c2c(=O)[nH]c(-c3cc4cccc(OCC)c4o3)nc12 | 227 to 229
CC(C)NS(=O)(=O)Cc1ccc([N+](=O)[O-])cc1 | 146 to 147
Nc1nc(C(F)(F)F)c(-c2ccncc2)cc1C(=O)O | > 283
CCc1ccc(Cn2cc(-c3ccc(OC)cc3)ccc2=O)cn1 | 130
COC(=O)c1ccc(Nc2ccc([N+](=O)[O-])cc2C(=O)OC)cc1 | 205 to 206
Nc1c(Cl)cc(C(O)CNCCCCCCOCCOCCc2ccccn2)cc1Cl (stereo not given) | 45.5 to 46.5
NC(CCCSc1nccc(NC(N)=NCC(F)(F)F)n1)=NO | 137 to 139
COC(=O)C1=C(C)NC(C)=C(S(C)(=O)=O)C1c1ccccc1[N+](=O)[O-] (stereo not given) | 211 to 212
CCOc1cc(=O)n(C)c2ccccc12 | 80 to 82
CCOC(=O)C(=O)N(CCOS(C)(=O)=O)N=Cc1ccccc1 | 93 to 95
Cc1ccc(S(=O)(=O)OCCn2c(=NC(=O)C(F)(F)F)sc3cc(C(F)(F)F)ccc32)cc1 | 163
CC(C)c1ccc(Cl)nn1 | 32 to 33
COc1ccc2c(c1)CCc1c-2n(-c2ccc(O[Si](C)(C)C(C)(C)C)cc2)c(=O)c2cc(OC)ccc12 | 194 to 195
CC(C)=CCc1cc(C(=O)C=Cc2ccc(O)cc2)c(O)cc1O | 157 to 158
CC(C(=O)c1ccc(Cl)c(Cl)c1)C(O)C(=O)O (stereo not given) | 103 to 104
COC(=O)C(Cc1ccccc1)Oc1ccc2cc(-c3cnc(-c4cn(C)c5ccccc45)o3)ccc2c1 (stereo not given) | 58 to 61
COc1ccc(CC(=O)NCc2ccccc2-c2ccccc2C(=O)NCc2ccc(F)cc2F)cc1 | 138
CCCCOC(=O)C1=C(C)NC(C)=C(C(=O)OC)C1c1cccc([N+](=O)[O-])c1 (stereo not given) | 69 to 70
CCCOCc1cc2c(-c3ccc(OCc4ccccc4)cc3)c(CC)c3cccc1n32 | 78 to 80
CCCCCCCCCC(=O)NCCCCCC(=O)OO | 63 to 67
COCc1cc(-c2ccccc2)c(=O)n2c1-c1sccc1CC2 | 120
c1ccc2c(c1)c1ccccc1c1cc(-c3ccc4c5ccccc5c5ccccc5c4c3)ccc21 | 356
NNc1c(F)cc(Cl)c2nc(Cl)sc12 | 162 to 180
COC(=O)C(C)(NC1OC(=O)C2C3C=CC(C3)C12)c1ccccc1 (stereo not given) | 120

SMILES | melting point [°C]
c1ccc(C[C@@H]2CN3C(c4nnn[nH]4)=Nc4nc(C5CCCC5)[nH]c4C3=N2)cc1 | 268 to 270
CCN(C)C(C)C(=O)Nc1cccc2c1C(=O)c1c(NC(=O)C(C)N(C)CC)cccc1C2=O (stereo not given) | 129 to 130
COc1ccc(CC(C)=NO)cc1S(N)(=O)=O | 193 to 194
O=C(O)CN1C(=O)C(NC(=O)[C@@H](S)Cc2ccccc2)CCCc2ccccc21 (stereo not given in full) | 107 to 111
Cc1sc2ccccc2c1C=O | 95 to 96
C/C(=C\c1ccc(C(=O)O)cc1)c1ccc2c(c1)C(C)(C)CCO2 | 179 to 181
Cc1ccc(CCOc2ncnc3c(F)cccc23)cc1 | 72 to 74
Cc1ccc(S(=O)(=O)N2CC3CCCNC3C2)cc1 (stereo not given) | 95 to 97
Cc1nsc(NC(=O)C(C)c2ccc3oc(-c4cccc(Cl)c4Cl)nc3c2)c1Cl (stereo not given) | 158 to 161
C/C(Cl)=C/CC(C)(C(=O)O)C(=O)O | 99 to 101
Cc1nc(CN(C)C)n2c1CN=C(c1ccccc1Cl)c1cc(Cl)ccc1-2 | 185 to 186
CCOC(=O)C1=C(C)NC(CF)=C(C(=O)OCC)C1c1ccccc1C(F)(F)F (stereo not given) | 84 to 86
CCc1cccc2c3c([nH]c12)C(CC)(CC(=O)OC)OCC3NC=O (stereo not given) | 154 to 156
C1=Cc2ccc3c(c2CC1)=C1CC=c2ccccc2=C1N=3 | 218
C=CCSc1ccc(-c2nc3cnncc3[nH]2)c(OC)c1 | 240
CS(=O)(=O)Nc1ccc(C(=O)c2ccccc2)cc1 | 145 to 147
COc1ccc2cc([C@H](C)C(=O)Oc3ccc(OCCO[N+](=O)[O-])cc3)ccc2c1 | 141 to 142
CCOC(=O)c1cnc2ccc(CC)nc2c1O | 262 to 264
Cc1c(C)c2c(c(C)c1NC(=O)C(C)(C)C)C(c1ccc(C(C)C)cc1)CO2 (stereo not given) | 177 to 178
C=CC(=O)NC(C)(C)COc1ccc(Cl)cc1 | 95 to 96
COC(=O)[C@@H](NC(=O)OC(C)(C)C)[C@H](O)c1ccccc1 | 101 to 102
O=C1CCCc2cc(F)cc(F)c21 | 57 to 58
Cc1ccsc1C(=O)C(=CN(C)C)c1ccc(C(F)(F)F)cc1[N+](=O)[O-] | 118
OCC1=CCN(Cc2ccccc2)CC1 | 57 to 60

SMILES | melting point [°C]
CSCC(=O)[C@H](Cc1cccs1)NC(=O)[C@H](CC(C)C)NC(=O)OCc1ccccc1 | 93 to 97
CC(Cl)(Cl)C(NC(=O)c1ccc(C(F)(F)F)cc1)NC(=NC#N)Nc1ccc(Cl)nc1 (stereo not given) | 210 to 211
COc1cc(C(F)(F)F)cc(OC)c1-c1csc(NC(=O)c2cc3ccccc3[nH]2)n1 | > 260
CCC(C)C(S)C(=O)NC1(C(=O)NC(Cc2ccc(-c3ccco3)nc2)C(=O)O)CCCC1 (stereo not given) | 175 to 180
O=C(O)c1cc(-n2c(-c3ccccc3)cc3ccccc32)ccc1O | 210 to 212
CC1(C)OC(=O)C(C(=O)Nc2ccc(Cl)c(Cl)c2)=C(O)O1 | 132 to 134
CN1Cc2c(C#N)ncn2-c2cccc(Br)c2C1=O | 226 to 228
CS(=O)c1ccc(Oc2ccc(Cl)c(Cl)c2)nc1 (stereo not given) | 88 to 90
COc1cc(N(C(=O)[C@@H](N)Cc2cnc[nH]2)S(=O)(=O)c2ccc3c(ccn3C)c2)cc(OC)c1OC | 175 to 177
O=C(O)CCCCCc1nc2ccccc2s1 | 71 to 72
COc1cc(OC)cc(N2CCN(CCC3CN(C)C(=O)O3)CC2)c1 (stereo not given) | 85 to 87
CCOc1nn(-c2cc(C(F)(F)F)ccn2)cc1CCCOc1cccc(CC(=O)O)c1 | 128 to 130
COc1ccc(C(CC(=O)O)N2Cc3ccccc3C2=O)cc1OC (stereo not given) | 146 to 148
COc1ccc(CNc2cc(Cl)c(N=CN(C)C)c(Cl)c2)cc1F | 138 to 140
O=C(O)C(CCc1ccc2c(c1)CCO2)NC(=O)C(F)(F)F (stereo not given) | 125
Cc1cc(Br)nc2c1OCC(=O)N2 | 174
CCC(CC(Cc1cccc2ccccc12)C(=O)N[C@@H](Cc1c[nH]cn1)C(=O)N[C@H](C=NNC(N)=O)CC(C)C)c1ccccc1 (stereo not given in full) | 105 to 109
CCOC(=O)C(C(=O)OCC)c1cccc2nnsc12 | 72 to 74
N#CCCSc1ccc(Cl)cc1 | 53 to 54
CCCCC(Cc1ccc(OCCNC(=O)c2ccc(-c3cc(C)c(OCOC)c(C)c3)cc2)cc1)C(=O)OCC (stereo not given) | 70 to 71
O=C(O)C1=Cc2cc(Cl)cc(-c3ccccc3)c2OC1C(F)(F)F (stereo not given) | 196 to 198
O=C(O)Cc1ccc(OCCNC(=O)C2Cc3ccccc3N2S(=O)(=O)c2ccc(-c3cc(C(F)(F)F)ccc3Cl)cc2)cc1F (stereo not given) | 105
Nc1ccccc1-c1ccc(Br)cc1N | 61 to 62
CCOC(=O)C(O)C1OC(c2ccccc2Cl)c2cc(Cl)ccc2N(C(C)C)C1=O (stereo not given) | 126 to 128

SMILES | melting point [°C]
Nc1ccc(S(=O)(=O)c2cc(-c3ccc(F)cc3)nc(N3CCCC3)c2)cc1 | 245 to 246
COc1ccc(C(O)CNCCc2ccc(OC)c(OC)c2C)cc1 (stereo not given) | 128 to 129
Cc1ccc(Cl)cc1S(N)(=O)=O | 142 to 145
Cc1cc2c(N3CCc4ccc(Cl)cc43)ncnc2cn1 | 232 to 234
O=C1c2ccc(Cl)cc2C(=O)C(O)(O)C1(O)O | 134 to 136
CCN(CC)CC/C=C/c1cc2ncc(C#N)c(Nc3ccc(Sc4nccn4C)c(Cl)c3)c2cc1OC | 194 to 202
N#Cc1ccc(NC(=O)OC2CN3CCC2CC3)cc1 (stereo not given) | 180 to 182
NC(=O)CN1CC(OCc2ccccc2)=CC1=O | 174 to 176
CCCCN(CCCC)c1ccc(C=CC2=C(C#N)C(=C(C#N)C#N)OC2(c2ccccc2)C(F)(F)F)c(OC)c1 (stereo not given) | 191 to 194
Cc1ccc(-c2c([N+](=O)[O-])oc3ccccc23)cc1C | 125 to 133
CSc1ccc(-c2nn(Cc3ccccc3)c(=S)cc2-c2ccc(F)cc2)cc1 | 108
O=C1CCOc2ccc(O)cc21 | 133 to 136
Cc1cccc(-c2ccc(NC(=O)Nc3ccc(Oc4cc(N)ncn4)cc3)cc2C(F)(F)F)n1 | 130 to 133
COC(=O)c1ccc(COC(C)=O)nc1C1=NC(C)(C(C)C)C(=O)N1C(C)=O (stereo not given) | 111 to 112
COc1cc(CO)ccc1OCc1coc(-c2ccco2)n1 | 117 to 118
C=C(CC1(CC(=C)c2ccc(C(=O)Nc3ccccc3N)cc2)C(=O)N(C)C(=O)N(C)C1=O)c1ccc(C(=O)Nc2ccccc2N)cc1 | 161 to 163
O=C1CN(Cc2ccccc2)CC2=C1N=C1N=C(N3CCOCC3)NN1C2 | 291 to 293
CNC(=N[N+](=O)[O-])N(C)Cc1ccc(Cl)nc1 | 136 to 137
NC(=S)NC1Cc2ccccc2C1 | 155
CS(=O)(=O)c1sccc1S(N)(=O)=O | 242 to 244
CCCc1nc(CO)c[nH]1 | 95 to 101
COc1cccc(CN2CC=C(/C=C/c3ccccc3)CC2)c1 | 75 to 77
COc1ccc(SC2SC(=O)NC2=O)cc1 (stereo not given) | 89 to 91
